From PubChem BioAssay (NCI) come the findings set out here.

SMILES strings stand for the structures.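 1) Cells in 96-well plates. 2) Compound, 48 h, 5 concentrations. 3) Linear interpolation between surrounding doses. 4) Unreached endpoint = highest concentration. TGI marks complete inhibition of growth.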

Holding throughout (test): NCI tumour cell line growth inhibition, 48 h
Experiment [1] deals with PC-3 prostate.
Experiment [2] has as its system P388 leukemia.
For experiment [3], the system named is SN12K1 renal.
In experiment [4] the test system is DMS 273 small cell lung.
In experiment [5] the test system is HOP-18 NSCLC.

Compound `Cc1nc2[nH]ncn2c(=O)c1CCO` had a TGI in experiment [1] of more than 10 µM.

For the compound `COc1cc(C2c3cc4c(cc3[C@@H](Oc3ccc(F)cc3)C3COC(=O)[C@H]23)OCO4)cc(OC)c1O` (stereo not given in full), the TGI in experiment [2] is more than 21.2 µM; in experiment [3], more than 100 µM; in experiment [4], 47.2 µM; in experiment [5] it was more than 100 µM.
